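Assay format: 96-well plates, 48-hour exposure. At the GI50, growth is halved.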 Calls of active or inactive are those of the source. Cut-off read from the data, not from the text of the source: active = GI50 up to about 1.1 µM and inactive = higher.
Columns and labels:
Test in all cases: DTP human tumour cell line panel, 48 h
UO-31 = test system: UO-31
LOX IMVI = test system: LOX IMVI
HL-60 = test system: HL-60
Malme-3M = test system: Malme-3M
K562 = test system: K562
SF-268 = test system: SF-268
A498 = test system: A498
HOP-92 = test system: HOP-92
SR = test system: SR
NCI-H226 = test system: NCI-H226
OVCAR-3 = test system: OVCAR-3
SF-295 = test system: SF-295
UACC-62 = test system: UACC-62
RPMI-8226 = test system: RPMI-8226
COLO 205 = test system: COLO 205
HT-29 = test system: HT-29
HCT-116 = test system: HCT-116
MDA-N = test system: MDA-N
NCI-H23 = test system: NCI-H23
CCRF-CEM = test system: CCRF-CEM
MOLT-4 = test system: MOLT-4
NCI/ADR-RES = test system: NCI/ADR-RES
SK-MEL-5 = test system: SK-MEL-5
ACHN = test system: ACHN
UACC-257 = test system: UACC-257
SN12C = test system: SN12C
SNB-19 = test system: SNB-19
SK-MEL-2 = test system: SK-MEL-2
TK-10 = test system: TK-10
OVCAR-5 = test system: OVCAR-5
EKVX = test system: EKVX
SW-620 = test system: SW-620
RXF 393 = test system: RXF 393
U-251 = test system: U-251
Hs-578T = test system: Hs-578T
A549 = test system: A549
HCC 2998 = test system: HCC 2998
HCT-15 = test system: HCT-15
NCI-H460 = test system: NCI-H460
DU-145 = test system: DU-145
KM12 = test system: KM12
M14 = test system: M14
786-0 = test system: 786-0
OVCAR-8 = test system: OVCAR-8
SNB-75 = test system: SNB-75
PC-3 = test system: PC-3
OVCAR-4 = test system: OVCAR-4
NCI-H522 = test system: NCI-H522
MDA-MB-435 = test system: MDA-MB-435
CAKI-1 = test system: CAKI-1
IGROV-1 = test system: IGROV-1
SK-OV-3 = test system: SK-OV-3
SK-MEL-28 = test system: SK-MEL-28
MDA-MB-231 = test system: MDA-MB-231
SF-539 = test system: SF-539
HOP-62 = test system: HOP-62
T47D = test system: T47D

Measured: GI50

N#Cc1c(N2CCCC2)ncn(-c2ccccc2)c1=O
inactive: UO-31 > 100 µM | LOX IMVI > 100 µM | HL-60 > 100 µM | Malme-3M > 100 µM | K562 > 100 µM | SF-268 > 100 µM | A498 > 100 µM | HOP-92 > 100 µM | SR > 100 µM | NCI-H226 > 100 µM | OVCAR-3 > 100 µM | SF-295 > 100 µM | UACC-62 > 100 µM | RPMI-8226 > 100 µM | COLO 205 > 100 µM | HT-29 > 100 µM | HCT-116 > 100 µM | MDA-N > 100 µM | NCI-H23 > 100 µM | CCRF-CEM > 100 µM | MOLT-4 > 100 µM | NCI/ADR-RES > 100 µM | SK-MEL-5 > 100 µM | ACHN > 100 µM | UACC-257 > 100 µM | SN12C > 100 µM | SNB-19 > 100 µM | SK-MEL-2 > 100 µM | TK-10 > 100 µM | OVCAR-5 > 100 µM | EKVX > 100 µM | SW-620 > 100 µM | RXF 393 > 100 µM | U-251 > 100 µM | Hs-578T > 100 µM | A549 > 100 µM | HCC 2998 > 100 µM | NCI-H460 > 100 µM | DU-145 > 100 µM | KM12 > 100 µM | M14 > 100 µM | 786-0 > 100 µM | OVCAR-8 > 100 µM | SNB-75 > 100 µM | PC-3 > 100 µM | OVCAR-4 > 100 µM | NCI-H522 > 100 µM | MDA-MB-435 > 100 µM | CAKI-1 > 100 µM | IGROV-1 > 100 µM | SK-OV-3 > 100 µM | SK-MEL-28 > 100 µM | MDA-MB-231 > 100 µM | SF-539 > 100 µM | HOP-62 > 100 µM | T47D > 100 µM
> 100 µM: HCT-15

— ChEMBL document CHEMBL1201862, “PubChem BioAssay data set” (2004)
